Key:
[1] = molecular target: T1, Fibroblast growth factor receptor 1 (Homo sapiens, UniProt P11362); test: Inhibition of bFGF-mediated tyrosine phosphorylation; type: functional
[2] = molecular target: T1, Fibroblast growth factor receptor 1
Description: Inhibition of the phosphorylation of a random glutamate-tyrosine (4:1) copolymer by isolated Fibroblast growth factor receptor 1.

[3] = molecular target: Platelet-derived growth factor receptor beta (Mus musculus, UniProt P05622)
Description: Inhibition of the phosphorylation of a random glutamate-tyrosine (4:1) copolymer by isolated mouse Platelet-derived growth factor protein.

[4] = tested on: Ovarian cancer cell line; test: Inhibition of human ovarian carcinoma (A90) FGF-R overexpressing cell proliferation
[5] = tested on: C6; test: Inhibition of PDGF-dependent rat glioma C6 cell proliferation
[6] = tested on: HUVEC; test: Inhibition of in vitro cell Human umbilical vein endothelial (HUVEC) cell proliferation
[7] = tested on: HUVEC; test: (§1) Inhibition of microcapillary growth in HUVEC cells; settings: Homo sapiens
[8] = tested on: HUVEC; test: Inhibition of Matrigel invasion assay in HUVEC cells; type: functional, cell-based; settings: Homo sapiens
[9] = tested on: HUVEC; test: as §1; type: functional, cell-based; settings: Homo sapiens
[10] = tested on: M5076; test: Weight change in murine M5076 sarcoma tumor at 200 mg/kg peroral dose days 8-16; type: functional, organism-based; parameters: dose 200 mg/kg; settings: Mus musculus
[11] = tested on: M5076; test: Difference in days for treated (T) and control (C) tumors to reach 750 mg in murine M5076 sarcoma tumor at 200 mg/kg; type: functional, Mus musculus
[12] = tested on: Mus musculus; test: Difference in days for the treated (T) and control (C) tumors to reach 750 mg in lewis lung murine tumor at 200 mg/kg; type: functional
[13] = tested on: Mus musculus; test: Difference in days for treated (T) and control (C) tumors to reach 750 mg in mammary 16/c murine tumor at 200 mg/kg; type: functional
[14] = tested on: Mus musculus; test: Difference in days for treated (T) and control (C) tumors to reach 750 mg in mammary 16/c murine tumor at 80 mg/kg; type: functional
[15] = tested on: M5076; test: Ratio of treated to control tumor mass on last therapy day in M5076 sarcoma murine tumor at 200 mg/kg; type: functional, Mus musculus
[16] = tested on: Mus musculus; test: Ratio of treated to control tumor mass on last therapy day in lewis lung murine tumor at 200 mg/kg dose; type: functional
[17] = tested on: Mus musculus; test: Ratio of treated to control tumor mass on last therapy day in mammary 16/c murine tumor at 200 mg/kg dose; type: functional
[18] = tested on: Mus musculus; test: Weight change in mammary 16/c murine tumor at 200 mg/kg peroral dose for days 1-9; type: functional, organism-based; parameters: dose 200 mg/kg
[19] = tested on: Mus musculus; test: Weight change in mammary 16/c murine tumor at 80 mg/kg peroral dose for schedule q12hx2, days 1-9; type: functional; settings: route oral
[20] = tested on: Lewis lung carcinoma cell line; test: Weight change in lewis lung murine tumor at 200 mg/kg peroral dose for days 4-12; type: functional, Mus musculus; settings: route oral
[21] = molecular target: Proto-oncogene tyrosine-protein kinase Src (Gallus gallus) (UniProt P00523); test: Inhibition of the phosphorylation of a random glutamate-tyrosine (4:1) copolymer by isolated avian c-Src protein.

Platelet-derived growth factor receptor beta, sequence (P05622 whole entry): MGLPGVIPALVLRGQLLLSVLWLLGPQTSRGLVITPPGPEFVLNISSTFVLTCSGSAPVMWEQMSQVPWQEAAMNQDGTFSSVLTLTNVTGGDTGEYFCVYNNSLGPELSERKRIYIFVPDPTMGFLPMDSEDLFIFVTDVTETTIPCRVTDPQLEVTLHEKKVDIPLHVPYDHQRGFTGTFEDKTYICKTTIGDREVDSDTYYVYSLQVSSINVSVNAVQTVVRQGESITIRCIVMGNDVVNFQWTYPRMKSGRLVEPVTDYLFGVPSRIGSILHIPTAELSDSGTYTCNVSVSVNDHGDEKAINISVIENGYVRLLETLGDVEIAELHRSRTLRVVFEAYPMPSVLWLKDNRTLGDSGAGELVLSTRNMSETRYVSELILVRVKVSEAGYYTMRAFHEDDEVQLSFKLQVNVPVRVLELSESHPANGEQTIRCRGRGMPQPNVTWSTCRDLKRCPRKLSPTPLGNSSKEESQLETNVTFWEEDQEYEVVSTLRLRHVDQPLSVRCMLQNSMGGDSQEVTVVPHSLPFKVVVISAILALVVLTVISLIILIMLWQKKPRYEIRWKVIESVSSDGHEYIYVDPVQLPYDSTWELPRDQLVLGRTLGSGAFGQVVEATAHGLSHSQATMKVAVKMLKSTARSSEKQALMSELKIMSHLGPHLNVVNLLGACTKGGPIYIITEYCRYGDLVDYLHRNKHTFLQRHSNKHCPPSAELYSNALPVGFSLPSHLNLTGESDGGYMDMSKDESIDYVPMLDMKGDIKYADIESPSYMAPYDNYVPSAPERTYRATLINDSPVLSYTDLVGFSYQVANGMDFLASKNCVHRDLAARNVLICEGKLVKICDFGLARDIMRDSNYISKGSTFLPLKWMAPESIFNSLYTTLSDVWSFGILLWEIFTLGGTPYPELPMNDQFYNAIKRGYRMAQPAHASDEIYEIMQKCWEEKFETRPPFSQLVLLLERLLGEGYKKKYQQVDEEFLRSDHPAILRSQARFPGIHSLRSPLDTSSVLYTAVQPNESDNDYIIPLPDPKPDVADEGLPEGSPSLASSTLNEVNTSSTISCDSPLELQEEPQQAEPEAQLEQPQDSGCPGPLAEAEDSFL
T1 sequence (P11362 whole entry): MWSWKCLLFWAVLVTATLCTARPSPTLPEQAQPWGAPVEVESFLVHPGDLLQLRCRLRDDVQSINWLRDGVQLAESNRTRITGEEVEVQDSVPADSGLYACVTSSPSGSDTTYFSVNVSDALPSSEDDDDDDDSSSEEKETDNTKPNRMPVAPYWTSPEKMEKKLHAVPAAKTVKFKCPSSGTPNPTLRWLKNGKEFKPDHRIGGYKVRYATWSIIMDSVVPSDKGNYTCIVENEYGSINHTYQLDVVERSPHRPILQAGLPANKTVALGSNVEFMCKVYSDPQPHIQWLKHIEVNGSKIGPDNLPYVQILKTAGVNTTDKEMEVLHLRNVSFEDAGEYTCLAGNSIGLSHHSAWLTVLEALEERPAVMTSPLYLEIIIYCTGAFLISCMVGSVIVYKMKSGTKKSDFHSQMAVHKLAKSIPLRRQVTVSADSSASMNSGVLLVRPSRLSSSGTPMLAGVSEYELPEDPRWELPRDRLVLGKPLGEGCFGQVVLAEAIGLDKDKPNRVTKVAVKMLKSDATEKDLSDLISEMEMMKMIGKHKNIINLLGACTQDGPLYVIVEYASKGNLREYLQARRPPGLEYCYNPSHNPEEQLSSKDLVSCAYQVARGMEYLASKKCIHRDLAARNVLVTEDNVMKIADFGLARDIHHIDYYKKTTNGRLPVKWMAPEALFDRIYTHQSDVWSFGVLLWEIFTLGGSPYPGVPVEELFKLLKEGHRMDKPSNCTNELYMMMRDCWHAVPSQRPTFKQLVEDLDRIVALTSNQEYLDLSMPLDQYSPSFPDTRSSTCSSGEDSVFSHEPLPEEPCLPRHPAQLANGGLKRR

Row | SMILES | IC50 [2] | IC50 [3] | IC50 [4] | IC50 [5] | IC50 [6] | further results
1 | COC(=O)C1=C(c2ccccc2)c2ccccc2C1=O | – | – | – | – | – | IC50 [1]: 5100 nM
2 | CC(C)(C)NC(=O)Nc1nc2cc(N)ncc2cc1-c1c(Cl)cccc1Cl | 120 nM | 1800 nM | – | – | – | –
3 | CC(C)(C)NC(=O)Nc1nc2nc(N)ncc2cc1-c1c(Cl)cccc1Cl | 130 nM | 1100 nM | – | – | – | –
4 | COc1cc(OC)cc(-c2cc3cnc(NC(=O)C(F)(F)F)cc3nc2N)c1 | 61 nM | > 50000 nM | 17000 nM | 9000 nM | 4900 nM | –
5 | Nc1cc2nc(N)c(-c3c(Cl)cccc3Cl)cc2cn1 | 2800 nM | 35000 nM | – | – | – | –
6 | CCNC(=O)Nc1nc2cc(N)ncc2cc1-c1c(Cl)cccc1Cl | 150 nM | 11000 nM | – | – | – | –
7 | COc1cc(OC)cc(-c2cc3cnc(NCCCN4CCOCC4)cc3nc2NC(=O)NC(C)(C)C)c1 | – | 45000 nM | 920 nM | 3100 nM | 85 nM | IC50 [7]: 1 nM
8 | Cc1c[nH]c(/C=C2\C(=O)Nc3ccccc32)c1CCC(=O)O | – | – | – | – | – | IC50 [1]: 20000 nM
9 | COc1cc(OC)cc(-c2cc3cnc(N)nc3nc2N)c1 | 230 nM | > 50000 nM | – | – | – | –
10 | CNC(=O)Nc1nc2cc(N)ncc2cc1-c1cc(OC)cc(OC)c1 | 95 nM | > 50000 nM | – | – | – | –
11 | CCNC(=O)Nc1nc2cc(N)ncc2cc1-c1cc(OC)cc(OC)c1 | 29 nM | > 50000 nM | 9300 nM | 8000 nM | 170 nM | –
12 | CCNC(=O)Nc1nc2nc(N)ncc2cc1-c1c(Cl)cccc1Cl | 130 nM | – | – | – | – | –
13 | COc1cc(OC)cc(-c2cc3cnc(NC(C)=O)cc3nc2NC(=O)NC(C)(C)C)c1 | 25 nM | 4700 nM | 12000 nM | 650 nM | 4 nM | IC50 [8]: 7 nM; IC50 [9]: 0.01 nM; Weight change [10]: Weight gain; T-C [11]: 1 days; T-C [12]: 0 days; T-C [13]: 11.3 days; T-C [14]: 10.8 days; T/C [15]: 78%; T/C [16]: 109%; T/C [17]: 0%; Weight change [18]: Weight gain; Weight change [19]: -0.7 g; Weight change [20]: -0.4 g
14 | Nc1ncc2cc(-c3c(Cl)cccc3Cl)c(N)nc2n1 | – | – | – | – | – | IC50 [21]: 210 nM
15 | COc1cc(OC)cc(-c2cc3cnc(N)cc3nc2NC(=O)NC(C)(C)C)c1 | 42 nM | 38000 nM | 1200 nM | 8500 nM | 5.5 nM | IC50 [8]: > 10000 nM; IC50 [9]: 100 nM
16 | COc1cc(OC)cc(-c2cc3cnc(NC(=O)NC(C)(C)C)cc3nc2NC(=O)NC(C)(C)C)c1 | 160 nM | > 50000 nM | 11000 nM | 13000 nM | 17 nM | IC50 [9]: 10 nM
17 | Nc1cc2nc(N)c(-c3ccccc3)cc2cn1 | 17000 nM | 17000 nM | – | – | – | –
18 | COc1cc(OC)cc(-c2cc3cnc(N)cc3nc2NC(=O)Nc2ccccc2)c1 | 510 nM | > 50000 nM | – | – | – | –
19 | COc1cc(OC)cc(-c2cc3cnc(N)cc3nc2N)c1 | 200 nM | > 50000 nM | 17000 nM | 8900 nM | 820 nM | –
20 | Cn1c(SSc2c(C(=O)Nc3ccccc3)c3ccccc3n2C)c(C(=O)Nc2ccccc2)c2ccccc21 | – | – | – | – | – | IC50 [1]: 4500 nM
21 | COc1cc(OC)cc(-c2cc3cnc(N)nc3nc2NC(=O)NC(C)(C)C)c1 | 600 nM | – | 15000 nM | > 25000 nM | 580 nM | IC50 [8]: 1100 nM; IC50 [9]: 100 nM
22 | CC(C)(C)NC(=O)Nc1nc2cc(N)ncc2cc1-c1ccccc1 | 1900 nM | 2600 nM | – | – | – | –
23 | CCNC(=O)Nc1nc2cc(N)ncc2cc1-c1ccccc1 | 1300 nM | 7700 nM | – | – | – | –

Source: ChEMBL document CHEMBL1133506, “3-(3,5-Dimethoxyphenyl)-1,6-naphthyridine-2,7-diamines and related 2-urea derivatives are potent and selective inhibitors of the FGF receptor-1 tyrosine kinase” (J Med Chem, 2000)
